Patent US20240239813A1, “KRAS INHIBITORS AND PHARMACEUTICAL USES THEREOF” (RISEN (SUZHOU) PHARMA TECH CO., LTD., priority 2022, published 2024)

Biological target: His-tagged Human KRAS^G12D (Homo sapiens (Human), UniProt P01116, G12D)
Assay: HTRF KRAS G12D GTP binding assay
Conditions: displacement of GTP-Red tracer
Protocol: KRAS^G12D was used in this assay.
The ability of a test compound to bind to KRAS^G12D was measured by using an HTRF KRAS^G12D GTP Binding Kit (Cisbio, 63ADK000CB27PEG). […] 5 μL of compound solution was added to each well after serial dilution, followed by addition of 5 μL of GDP (50 nM) solution. After 30 minutes incubation at room temperature, 1×6His Eu cryptate antibody solution and GTP-Red tracer were added to the plate, then incubated for another 30 minutes. The HTRF signal was measured with a VICTOR Nivo multimode plate reader according to the manufacturer's instructions. The percent inhibition was calculated using the following formula: […]
(where the “Maximum Signal” are wells containing DMSO without inhibitor; the “Minimum Signal” are wells containing reference inhibitory component (GDP); the “Test compound signal” are wells containing test compound (inhibitor) at established concentrations).
IC50 was determined by fitting percent inhibition at each inhibitor concentration to the four-parameter nonlinear logistic equation using GraphPad Prism.

Sequence of His-tagged Human KRAS^G12D (P01116-2 other isoform, or with tags, fused parts or gaps G12D): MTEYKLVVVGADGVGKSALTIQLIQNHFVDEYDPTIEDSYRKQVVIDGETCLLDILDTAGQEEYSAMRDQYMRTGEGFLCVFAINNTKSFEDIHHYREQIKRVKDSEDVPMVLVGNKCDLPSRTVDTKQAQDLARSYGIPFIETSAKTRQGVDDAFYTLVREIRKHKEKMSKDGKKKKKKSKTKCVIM

| SMILES | IC50 |
| --- | --- |
| CCc1c(F)ccc2cc(O)cc(-c3ncc4c(N5CC6CC(C6)C5)nc(OCC5(CN(C)C)CC5)nc4c3F)c12 [Compound 38a] | > 1000 nM |
| CCc1c(F)ccc2cc(O)cc(-c3ncc4c(N5CCC6(CCO6)CC5)nc(OC[C@@]56CCCN5C[C@H](F)C6)nc4c3F)c12 [Compound 60] | > 1000 nM |
| CCc1c(F)ccc2cc(O)cc(-c3ncc4c(N5CCC6(COC6)C5)nc(OC[C@@]56CCCN5C[C@H](F)C6)nc4c3F)c12 [Compound 61] | > 1000 nM |
| CCc1c(F)ccc2cc(O)cc(-c3ncc4c(N5CCC[C@]6(CCO6)C5)nc(OCC5(CN6CCN(C)CC6)CC5)nc4c3F)c12 [Compound 12a] | 12.1 nM |
| CCc1c(F)ccc2cc(O)cc(-c3ncc4c(N5CCCC6(COC6)C5)nc(OC[C@@]56CCCN5C[C@H](F)C6)nc4c3F)c12 [Compound 50] | 71 nM |
| CCc1c(F)ccc2cc(O)cc(-c3ncc4c(N5CCC(C(C)=O)CC5)nc(OC[C@@]56CCCN5C[C@H](F)C6)nc4c3F)c12 [Compound 49] | > 1000 nM |
| CCc1c(F)ccc2cc(O)cc(-c3ncc4c(N5CCC6(CCCC6=O)CC5)nc(OC[C@@]56CCCN5C[C@H](F)C6)nc4c3F)c12 [Compound 58] | > 1000 nM |
| CCc1c(F)ccc2cc(O)cc(-c3ncc4c(N5CCC6(CCOC6)C5)nc(OC[C@@]56CCCN5C[C@H](F)C6)nc4c3F)c12 (some centres unmarked) [Compound 1a] | 752 nM |
| CCc1c(F)ccc2cc(O)cc(-c3ncc4c(N5CCCC5c5cccnc5)nc(OC[C@@]56CCCN5C[C@H](F)C6)nc4c3F)c12 (some centres unmarked) [Compound 24] | > 10000 nM |
| Nc1cc(Cl)c(C(F)(F)F)c(-c2ncc3c(N4CCCC5(COC5)C4)nc(OC[C@@]45CCCN4C[C@H](F)C5)nc3c2F)c1 [Compound 63] | > 1000 nM |
| CCc1c(F)ccc2cc(O)cc(-c3ncc4c(OC[C@@]56CCCN5C[C@H](F)C6)nc(OC[C@@]56CCCN5C[C@H](F)C6)nc4c3F)c12 [Compound 47] | > 1000 nM |
| CCc1c(F)ccc2cc(O)cc(-c3ncc4c(N5CCC[C@@]5(C)CO)nc(OC[C@@]56CCCN5C[C@H](F)C6)nc4c3F)c12 [Compound 22] | > 10000 nM |
| CCc1c(F)ccc2cc(O)cc(-c3ncc4c(N5CCC(C)(CO)C5)nc(OC[C@@]56CCCN5C[C@H](F)C6)nc4c3F)c12 (some centres unmarked) [Compound 56] | > 1000 nM |
| CCc1c(F)ccc2cc(O)cc(-c3ncc4c(N5CCC6(CC5)COC6)nc(OC[C@@]56CCCN5C[C@H](F)C6)nc4c3F)c12 [Compound 53] | > 1000 nM |
| CCc1c(F)ccc2cc(O)cc(-c3ncc4c(N5CCCC6(CCN6)C5)nc(OC[C@@]56CCCN5C[C@H](F)C6)nc4c3F)c12 (some centres unmarked) [Compound 4a] | > 1000 nM |
| CCc1c(F)ccc2cc(O)cc(-c3ncc4c(N5CC6(CC(O)C6)C5)nc(OC[C@@]56CCCN5C[C@H](F)C6)nc4c3F)c12 [Compound 36] | > 1000 nM |
| CCc1c(F)ccc2cc(O)cc(-c3ncc4c(N5CCCC(Cl)(CCO)C5)nc(OC[C@@]56CCCN5C[C@H](F)C6)nc4c3F)c12 (some centres unmarked) [Compound 26] | 1530 nM |
| CCc1c(F)ccc2cc(O)cc(-c3ccc4c(N5CCCC6(CCO6)C5)nc(OC[C@@]56CCCN5C[C@H](F)C6)nc4c3F)c12 (some centres unmarked) [Compound 70] | 67.4 nM |
| CN(C)CC1(COc2nc(N3CCC[C@]4(CCO4)C3)c3cnc(-c4cc(O)ccc4-c4cccs4)c(F)c3n2)CC1 [Compound 25a] | 639 nM |
| CCc1c(F)ccc2cc(O)cc(-c3ncc4c(N5CC6(CCC6O)C5)nc(OC[C@@]56CCCN5C[C@H](F)C6)nc4c3F)c12 (some centres unmarked) [Compound 110] | > 1000 nM |
| CCc1c(F)ccc2cc(O)cc(-c3ncc4c(N5CC6(COC6)C5)nc(OC[C@@]56CCCN5C[C@H](F)C6)nc4c3F)c12 [Compound 54] | > 1000 nM |

| SMILES | IC50 |
| --- | --- |
| CCc1c(F)ccc2cc(O)cc(-c3ncc4c(N5CCCC6(CCO6)C5)nc(OC[C@@H]5C[C@@H](F)CN5C)nc4c3F)c12 (some centres unmarked) [Compound 3a] | 141 nM |
| CCc1c(F)ccc2cc(O)cc(-c3ncc4c(N5CCCC6(CCO6)C5)nc(OC[C@H](C)OC)nc4c3F)c12 (some centres unmarked) [Compound 11a] | > 1000 nM |
| CCc1c(F)ccc2cc(O)cc(-c3ncc4c(N5CCN[C@H](C)C5)nc(OC[C@@]56CCCN5C[C@H](F)C6)nc4c3F)c12 [Compound 34] | > 1000 nM |
| CCc1c(F)ccc2cc(O)cc(-c3ncc4c(N5CCC6(CCCCC6)C5)nc(OC[C@@]56CCCN5C[C@H](F)C6)nc4c3F)c12 [Compound 40] | > 1000 nM |
| CCc1c(F)ccc2cc(O)cc(-c3c(F)cc4c(N5CCCC6(CCO6)C5)nc(OC[C@@]56CCCN5C[C@H](F)C6)nc4c3F)c12 (some centres unmarked) [Compound 96] | 128 nM |
| CCc1c(F)ccc2cc(O)cc(-c3ncc4c(N5C[C@@H]6C[C@H]5CO6)nc(OC[C@@]56CCCN5C[C@H](F)C6)nc4c3F)c12 [Compound 35] | > 1000 nM |
| CCc1c(F)ccc2cc(O)cc(-c3ncc4c(N5C[C@@H]6C[C@@H](O)[C@H]5C6)nc(OC[C@@]56CCCN5C[C@H](F)C6)nc4c3F)c12 [Compound 27] | > 10000 nM |
| CCc1c(F)ccc2cc(O)cc(-c3ncc4c(N5CCCC(c6ccccc6)C5)nc(OC[C@@]56CCCN5C[C@H](F)C6)nc4c3F)c12 (some centres unmarked) [Compound 20] | > 10000 nM |
| CCc1c(F)ccc2cc(O)cc(-c3ncc4c(N5CC[C@@H](C(C)(C)O)C5)nc(OC[C@@]56CCCN5C[C@H](F)C6)nc4c3F)c12 [Compound 29] | > 10000 nM |
| CCc1c(F)ccc2cc(O)cc(-c3ncc4c(N5CC[C@@H](CO)C5)nc(OC[C@@]56CCCN5C[C@H](F)C6)nc4c3F)c12 [Compound 32] | > 1000 nM |
| CCc1c(F)ccc2cc(O)cc(-c3ncc4c(N5C6CCCC5CC6)nc(OC[C@@]56CCCN5C[C@H](F)C6)nc4c3F)c12 [Compound 17] | > 1000 nM |
| CCc1c(F)ccc2cc(O)cc(-c3ncc4c(N5CCC[C@H]5C(C)(C)O)nc(OC[C@@]56CCCN5C[C@H](F)C6)nc4c3F)c12 [Compound 45] | > 1000 nM |
| CCc1c(F)ccc2cc(O)cc(-c3ncc4c(N5CCCC6(C5)OCCO6)nc(OC[C@@]56CCCN5C[C@H](F)C6)nc4c3F)c12 [Compound 117] | 373 nM |
| CCc1c(F)ccc2cc(O)cc(-c3ncc4c(N5CCCC5c5ccccc5)nc(OC[C@@]56CCCN5C[C@H](F)C6)nc4c3F)c12 (some centres unmarked) [Compound 19] | > 10000 nM |
| CCc1c(F)ccc2cc(O)cc(-c3ncc4c(N5CCC6(CCC6=O)CC5)nc(OC[C@@]56CCCN5C[C@H](F)C6)nc4c3F)c12 [Compound 59] | > 1000 nM |
| CCc1c(F)ccc2cc(O)cc(-c3ncc4c(N5CCC(C)(O)C5)nc(OC[C@@]56CCCN5C[C@H](F)C6)nc4c3F)c12 (some centres unmarked) [Compound 16] | > 1000 nM |
| CCc1c(F)ccc2cc(O)cc(-c3ncc4c(N5CCC6CC6(O)C5)nc(OC[C@@]56CCCN5C[C@H](F)C6)nc4c3F)c12 (some centres unmarked) [Compound 52] | > 1000 nM |
| CCc1c(F)ccc2cc(O)cc(-c3ncc4c(NC5CC6(CCC6)C5)nc(OC[C@@]56CCCN5C[C@H](F)C6)nc4c3F)c12 [Compound 28] | > 10000 nM |
| CCc1c(F)ccc2cc(O)cc(-c3ncc4c(N5CC6(CCO6)C5)nc(OC[C@@]56CCCN5C[C@H](F)C6)nc4c3F)c12 [Compound 6a] | > 1000 nM |
| CCc1c(F)ccc2cc(O)cc(-c3ncc4c(N5CC[C@H](CO)C5)nc(OC[C@@]56CCCN5C[C@H](F)C6)nc4c3F)c12 [Compound 48] | > 1000 nM |
| Cc1ccc2[nH]ncc2c1-c1ccc2c(N3CCC[C@]4(CCO4)C3)nc(OCC3(CN(C)C)CC3)nc2c1F [Compound 14a] | > 1000 nM |

Now from value to molecule:

| IC50 | SMILES |
| --- | --- |
| > 1000 nM | CN(C)CC1(COc2nc(N3CCC[C@]4(CCO4)C3)c3cc(Cl)c(-c4ccc(F)c5sc(N)c(C#N)c45)c(F)c3n2)CC1 [Compound 39a] |
| 6.76 nM | CCc1c(F)ccc2cc(O)cc(-c3ncc4c(N5CCC[C@]6(CCO6)C5)nc(OCC5(CN(C)CC6CCOC6)CC5)nc4c3F)c12 (some centres unmarked) [Compound 50a] |
| 518 nM | CCc1c(F)ccc2cc(O)cc(-c3ncc4c(N5CCC[C@]6(CCO6)C5)nc(OCC5(CC(N)=O)CC5)nc4c3F)c12 [Compound 31a] |
| > 1000 nM | CCc1c(F)ccc2cc(O)cc(-c3ncc4c(N5CCCC(C#N)CC5)nc(OCC5(CN(C)C)CC5)nc4c3F)c12 (centres unmarked) [Compound 42a] |
| 481 nM | CCc1c(F)ccc2cc(O)cc(-c3ncc4c(N(C)CC(C)(C)O)nc(OCC5(CN(C)C)CC5)nc4c3F)c12 [Compound 32a] |
| 684 nM | CCc1c(F)ccc2cc(O)cc(-c3ncc4c(N5CCCCC(O)C5)nc(OCC5(CN(C)C)CC5)nc4c3F)c12 (centres unmarked) [Compound 46a] |
| > 1000 nM | CN(C)CC1(COc2nc(N3CCC[C@]4(CCO4)C3)c3cnc(-c4ccc(F)c5sc(N)c(C#N)c45)c(F)c3n2)CC1 [Compound 35a] |
| 4.05 nM | CCc1c(F)ccc2cc(O)cc(-c3ncc4c(N5CCC[C@]6(CCO6)C5)nc(OCC5(CN(C)CC6COC6)CC5)nc4c3F)c12 [Compound 49a] |
| 424 nM | CCc1c(F)ccc2cc(O)cc(-c3ncc4c(N5CCCC(OC)CC5)nc(OCC5(CN(C)C)CC5)nc4c3F)c12 (centres unmarked) [Compound 40a] |
| > 1000 nM | C#Cc1c(F)ccc2cc(O)cc(-c3ncc4c(N5CC=CCC5)nc(OCC5(CN(C)C)CC5)nc4c3F)c12 [Compound 36a] |
| 121 nM | CCc1c(F)ccc2cc(O)cc(-c3ncc4c(N5CCC[C@]6(CCO6)C5)nc(OCC5(N(C)C)CC5)nc4c3F)c12 [Compound 37a] |
| 14.2 nM | CCc1c(F)ccc2cc(O)cc(-c3ncc4c(N5CCC[C@]6(CCO6)C5)nc(OCC5(CN6CCC(F)C6)CC5)nc4c3F)c12 (some centres unmarked) [Compound 41a] |
| 41.6 nM | CCc1c(F)ccc2cc(O)cc(-c3ncc4c(N5CCC[C@]6(CCO6)C5)nc(OCC5(CN6CCC(F)(F)CC6)CC5)nc4c3F)c12 [Compound 30a] |
| > 1000 nM | CCc1c(F)ccc2cc(O)cc(-c3ncc4c(N5CCCCC(OC)C5)nc(OCC5(CN(C)C)CC5)nc4c3F)c12 (centres unmarked) [Compound 45a] |
